The results in this text go back to doi:10.1101/2024.06.17.599304v1, “Dizocilpine derivatives with neuroprotective effect lacking the psychomimetic side effects” (biorxiv, 2024).

The target of test [1] is T1, human plasmatic butyrylcholinesterase (hBChE) (Homo sapiens, UniProt P06276).
T1 construct: gene BCHE

For test [2], the target named is T2, hGluN1/hGluN2B (Homo sapiens, UniProt Q05586+Q13224). Nature of the test: cell-based. The settings on record: HEK293; -60 mV, 1 mM L-glutamate. Set-up: gene GRIN1; cDNA vectors for human GluN1-1a and GluN2B co-transfected with GFP in HEK293 cells; diheteromeric receptor; whole-cell voltage-clamp electrophysiology, inhibition of steady-state L-glutamate-induced currents at -60 mV. Here is the method: (§1) First, we determined the relative inhibition of all novel compounds on the two major diheteromeric NMDA receptor subtypes in the adult cortex – GluN1/GluN2A and GluN1/GluN2B [1] – using a clinically relevant concentration (3 µM). We kept the measured cells at a membrane potential of -60 mV, and the values of relative inhibition by the compounds were calculated from the L-glutamate-induced responses of human versions of the GluN1/GluN2A (hGluN1/hGluN2A) and GluN1/GluN2B (hGluN1/hGluN2B) receptors obtained under steady-state conditions. […] Specifically, in the case of hGluN1/hGluN2A receptors, we obtained relative inhibition values ranging from ∼5% for compound 3h to ∼93% for compound 6f, while for hGluN1/hGluN2B receptors, we measured values ranging from ∼3% for compound 3i to ∼92% for compound 6g at a fixed dose of 3 µM of the tested compound. […] It can be assumed that the positive and negative effects of a given inhibitor of the NMDA receptor in vivo are caused by their affinity and the kinetics of inhibition, in addition to their availability in the CNS. […] In further experiments, we generated concentration-response curves for 6f (0.03-10 µM) and 3l (0.3-300 µM) on both hGluN1/hGluN2A and hGluN1/hGluN2B receptors at negative (-60 mV) and positive (40 mV) membrane potentials (Fig. 2A-D). […] (A, C) Representative whole-cell voltage-clamp recordings of HEK293 cells expressing hGluN1/hGluN2A or hGluN1/hGluN2B receptors showing the inhibitory effects of compound 6f (0.03 - 300 µM) and compound 3l (0.3 - 300 µM) at membrane potentials of 40 mV (A) and -60 mV (C). Glu = 1 mM L-glutamate. (B, D) Normalized inhibitory concentration-response curves for compound 6f and compound 3l for hGluN1/hGluN2A and hGluN1/hGluN2B receptors at membrane potentials of 40 mV (B) and -60 mV (D). Concentration-response curves were fitted using Equation 1; the resulting IC50 values, Hill coefficients, and the numbers of cells measured for each membrane potential are shown in Table 3.

In test [3] the target is T3, hGluN1/hGluN2A (Homo sapiens, UniProt Q05586+Q12879). Nature of the test: cell-based. The settings on record: HEK293; -60 mV, 1 mM L-glutamate. Set-up: gene GRIN1; cDNA vectors for human GluN1-1a and GluN2A co-transfected with GFP in HEK293 cells; diheteromeric receptor; whole-cell voltage-clamp electrophysiology, inhibition of steady-state L-glutamate-induced currents at -60 mV. On the procedure:
as §1

Test [4] deals with T3, hGluN1/hGluN2A. Nature of the test: whole-cell patch clamp, HEK293. The test is classed as cell-based. Set-up: gene GRIN1; cDNA vectors for human GluN1-1a and GluN2A co-transfected with GFP in HEK293 cells; diheteromeric receptor. The settings on record: -60 mV; 1 mM L-glutamate, 100 µM glycine; pH 7.3; voltage-dependent block. From the text: whole-cell patch clamp, HEK293 on hGluN1/hGluN2A
Background: Patch clamp records ionic current or voltage across a cell membrane.

Test [5] addresses T1, human plasmatic butyrylcholinesterase (hBChE). Nature of the test: biochemical.
Test [6] deals with T2, hGluN1/hGluN2B. Nature of the test: whole-cell patch clamp, HEK293. Set-up: gene GRIN1; cDNA vectors for human GluN1-1a and GluN2B co-transfected with GFP in HEK293 cells; diheteromeric receptor. The test is classed as cell-based. The settings on record: -60 mV; 1 mM L-glutamate, 100 µM glycine; pH 7.3; voltage-dependent block. An excerpt: whole-cell patch clamp, HEK293 on hGluN1/hGluN2B

Test [7] has as its target T4, human recombinant AChE (hAChE) (Homo sapiens, UniProt P22303).
T4 construct: recombinant enzyme purchased from Merck
Nature of the test: modified Ellman's method. The test is classed as biochemical. In general terms: Ellman's reagent forms a yellow product with free thiols.

The target of test [8] is T2, hGluN1/hGluN2B. Set-up: gene GRIN1. The settings on record: -60 mV; 1 mM L-glutamate, 100 µM glycine; pH 7.3.
Test [9] deals with T3, hGluN1/hGluN2A. The arrangement: gene GRIN1. The conditions noted are these: -60 mV; 1 mM L-glutamate, 100 µM glycine; pH 7.3.

SMILES strings stand for the structures. Structures can show the parent of a compound that is named as a salt. Where two headings read alike, the source gives them in different places.

T3 sequence (Q12879 23-1464, other chains not shown): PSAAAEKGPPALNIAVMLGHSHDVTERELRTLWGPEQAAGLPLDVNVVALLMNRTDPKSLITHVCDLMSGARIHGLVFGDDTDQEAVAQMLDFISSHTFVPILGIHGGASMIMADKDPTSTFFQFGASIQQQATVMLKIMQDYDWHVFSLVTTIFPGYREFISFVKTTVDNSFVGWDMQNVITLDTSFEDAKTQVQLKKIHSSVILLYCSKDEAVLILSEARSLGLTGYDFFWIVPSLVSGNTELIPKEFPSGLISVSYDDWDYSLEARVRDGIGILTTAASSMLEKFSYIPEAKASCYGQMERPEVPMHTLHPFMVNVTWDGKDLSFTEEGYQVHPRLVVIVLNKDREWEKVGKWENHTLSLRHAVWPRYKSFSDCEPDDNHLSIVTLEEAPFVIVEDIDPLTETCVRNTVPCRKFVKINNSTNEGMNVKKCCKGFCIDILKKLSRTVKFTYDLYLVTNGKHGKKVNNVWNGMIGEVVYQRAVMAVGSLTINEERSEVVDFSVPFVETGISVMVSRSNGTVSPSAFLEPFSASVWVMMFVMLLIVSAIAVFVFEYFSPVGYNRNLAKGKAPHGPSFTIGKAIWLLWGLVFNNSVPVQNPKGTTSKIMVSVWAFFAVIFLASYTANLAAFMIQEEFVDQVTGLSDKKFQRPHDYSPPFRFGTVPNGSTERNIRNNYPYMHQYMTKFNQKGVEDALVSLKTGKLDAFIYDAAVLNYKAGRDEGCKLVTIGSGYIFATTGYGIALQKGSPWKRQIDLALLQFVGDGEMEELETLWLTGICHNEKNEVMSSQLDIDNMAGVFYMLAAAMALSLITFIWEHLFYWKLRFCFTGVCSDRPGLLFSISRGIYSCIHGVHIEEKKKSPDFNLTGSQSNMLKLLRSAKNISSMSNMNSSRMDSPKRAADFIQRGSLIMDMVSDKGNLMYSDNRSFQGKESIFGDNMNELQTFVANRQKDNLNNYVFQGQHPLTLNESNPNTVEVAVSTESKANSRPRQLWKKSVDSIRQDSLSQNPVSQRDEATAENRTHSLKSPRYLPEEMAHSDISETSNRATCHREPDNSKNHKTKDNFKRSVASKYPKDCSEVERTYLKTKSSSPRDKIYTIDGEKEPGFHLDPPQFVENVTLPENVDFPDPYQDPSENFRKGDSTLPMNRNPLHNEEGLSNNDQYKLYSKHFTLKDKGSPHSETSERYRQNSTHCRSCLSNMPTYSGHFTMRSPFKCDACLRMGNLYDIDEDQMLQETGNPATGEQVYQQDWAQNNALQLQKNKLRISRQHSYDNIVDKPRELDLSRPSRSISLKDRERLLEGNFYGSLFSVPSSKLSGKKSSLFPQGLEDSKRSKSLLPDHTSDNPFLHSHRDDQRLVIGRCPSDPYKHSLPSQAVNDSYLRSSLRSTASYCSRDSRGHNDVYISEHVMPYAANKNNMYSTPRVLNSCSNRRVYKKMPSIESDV
T2 sequence (Q13224 27-1484, other chains not shown): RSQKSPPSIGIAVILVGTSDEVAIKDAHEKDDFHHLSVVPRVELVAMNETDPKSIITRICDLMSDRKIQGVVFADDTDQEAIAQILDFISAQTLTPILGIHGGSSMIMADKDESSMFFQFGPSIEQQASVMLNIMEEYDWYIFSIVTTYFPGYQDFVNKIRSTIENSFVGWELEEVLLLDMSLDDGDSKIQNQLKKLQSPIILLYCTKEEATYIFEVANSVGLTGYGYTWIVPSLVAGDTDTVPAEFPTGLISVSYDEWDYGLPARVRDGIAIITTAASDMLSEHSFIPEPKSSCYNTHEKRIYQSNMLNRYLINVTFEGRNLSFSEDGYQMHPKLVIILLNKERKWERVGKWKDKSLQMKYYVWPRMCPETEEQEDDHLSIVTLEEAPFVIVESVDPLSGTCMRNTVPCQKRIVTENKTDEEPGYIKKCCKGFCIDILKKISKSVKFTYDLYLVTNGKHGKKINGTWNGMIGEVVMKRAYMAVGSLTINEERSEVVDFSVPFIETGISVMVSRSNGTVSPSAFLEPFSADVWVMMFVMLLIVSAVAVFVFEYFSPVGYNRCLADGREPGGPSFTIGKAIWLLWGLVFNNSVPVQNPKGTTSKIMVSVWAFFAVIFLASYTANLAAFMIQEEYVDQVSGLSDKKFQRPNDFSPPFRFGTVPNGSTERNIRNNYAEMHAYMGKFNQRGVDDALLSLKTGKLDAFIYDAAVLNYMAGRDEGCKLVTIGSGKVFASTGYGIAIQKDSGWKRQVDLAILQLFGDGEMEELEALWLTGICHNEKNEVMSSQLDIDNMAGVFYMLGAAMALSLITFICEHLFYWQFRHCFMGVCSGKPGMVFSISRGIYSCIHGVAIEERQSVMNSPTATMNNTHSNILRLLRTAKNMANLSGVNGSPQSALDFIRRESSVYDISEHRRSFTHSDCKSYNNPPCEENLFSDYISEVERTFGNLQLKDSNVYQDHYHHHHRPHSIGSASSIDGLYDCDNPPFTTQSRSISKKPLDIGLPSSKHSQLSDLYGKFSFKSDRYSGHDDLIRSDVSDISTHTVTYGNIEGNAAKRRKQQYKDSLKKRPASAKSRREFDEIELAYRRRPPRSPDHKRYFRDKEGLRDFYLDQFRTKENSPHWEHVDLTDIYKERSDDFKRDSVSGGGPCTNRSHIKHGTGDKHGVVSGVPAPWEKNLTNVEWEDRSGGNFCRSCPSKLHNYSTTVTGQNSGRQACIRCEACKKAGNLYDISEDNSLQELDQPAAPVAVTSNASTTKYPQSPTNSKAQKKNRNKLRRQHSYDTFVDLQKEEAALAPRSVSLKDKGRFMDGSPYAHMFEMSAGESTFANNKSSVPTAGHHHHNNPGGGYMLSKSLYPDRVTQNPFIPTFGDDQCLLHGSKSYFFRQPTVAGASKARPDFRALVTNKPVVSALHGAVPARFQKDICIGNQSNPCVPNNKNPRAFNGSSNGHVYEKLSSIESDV
T1 sequence (P06276 29-602): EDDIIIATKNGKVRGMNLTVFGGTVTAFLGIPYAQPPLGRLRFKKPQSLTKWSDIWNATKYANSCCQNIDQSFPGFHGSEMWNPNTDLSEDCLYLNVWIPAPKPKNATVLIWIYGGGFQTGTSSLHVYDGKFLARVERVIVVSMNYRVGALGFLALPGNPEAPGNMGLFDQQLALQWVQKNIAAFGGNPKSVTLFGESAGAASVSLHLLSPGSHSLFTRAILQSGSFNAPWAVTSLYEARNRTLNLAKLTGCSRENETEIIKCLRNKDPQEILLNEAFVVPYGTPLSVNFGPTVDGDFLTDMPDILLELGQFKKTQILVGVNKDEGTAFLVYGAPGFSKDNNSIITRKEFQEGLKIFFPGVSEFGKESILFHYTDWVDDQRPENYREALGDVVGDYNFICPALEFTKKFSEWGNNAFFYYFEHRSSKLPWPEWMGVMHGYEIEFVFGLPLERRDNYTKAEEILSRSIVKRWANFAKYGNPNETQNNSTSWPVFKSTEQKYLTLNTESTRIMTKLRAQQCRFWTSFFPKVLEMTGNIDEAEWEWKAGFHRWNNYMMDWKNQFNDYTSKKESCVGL
T4 sequence (P22303 32-614): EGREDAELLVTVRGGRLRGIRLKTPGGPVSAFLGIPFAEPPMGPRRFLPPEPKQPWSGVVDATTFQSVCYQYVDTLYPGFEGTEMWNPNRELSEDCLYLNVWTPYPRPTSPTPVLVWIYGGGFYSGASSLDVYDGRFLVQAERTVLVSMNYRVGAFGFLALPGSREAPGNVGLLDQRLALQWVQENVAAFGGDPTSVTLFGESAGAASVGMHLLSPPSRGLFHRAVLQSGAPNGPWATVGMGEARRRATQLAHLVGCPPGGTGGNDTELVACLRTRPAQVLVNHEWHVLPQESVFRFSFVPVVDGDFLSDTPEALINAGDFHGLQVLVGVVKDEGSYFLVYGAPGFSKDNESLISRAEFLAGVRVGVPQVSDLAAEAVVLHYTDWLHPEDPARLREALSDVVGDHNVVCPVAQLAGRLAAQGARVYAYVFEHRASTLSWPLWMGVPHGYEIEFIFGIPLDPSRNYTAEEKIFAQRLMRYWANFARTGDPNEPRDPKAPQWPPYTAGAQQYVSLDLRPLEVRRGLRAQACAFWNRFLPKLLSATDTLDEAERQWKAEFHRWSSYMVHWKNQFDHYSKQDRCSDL

For the compound `C1=Cc2ccccc2C(N2CCCCC2)c2ccccc21` [6h, 1-(5H-dibenzo[a,d][7]annulen-5-yl)piperidine hydrochloride], half-maximal inhibition in [1] (IC50) was put at 16.5 ± 0.9 µM. Also, the inhibition at 3 µM came to 58.4 ± 4.37% on hGluN1/hGluN2B [2] and 29.9 ± 2.73% on hGluN1/hGluN2A [3].

Consider `OCCNC1c2ccccc2CCc2ccccc21` [3l, 2-((10,11-dihydro-5H-dibenzo[a,d][7]annulen-5-yl)amino)ethanol hydrochloride], for which the inhibition at 3 µM against hGluN1/hGluN2B [2] was found to be 49.7 ± 4.47%; on hGluN1/hGluN2A [3] it was 48 ± 5.18%. Moreover, the concentration for half-maximal inhibition (IC50) is 4.42 ± 0.9 µM on hGluN1/hGluN2A [4], greater than 100 µM in test [5], 4.4 ± 0.42 µM against hGluN1/hGluN2B [6] and greater than 100 µM in test [7].

For the compound `C1=Cc2ccccc2C(NC2CCCCC2)c2ccccc21` [6g, N-cyclohexyl-5H-dibenzo[a,d][7]annulen-5-amine hydrochloride], the “RI (%) at 3 μM” value on hGluN1/hGluN2B [8] is 92.37 ± 1.82%; on hGluN1/hGluN2A [9] it was 92.12 ± 1.48%. Further, the half-maximal inhibitory concentration (IC50) in test [5] was found to be 8.5 ± 0.4 µM.

For `CC(C)CNC1c2ccccc2C=Cc2ccccc21` [6f, N-isobutyl-5H-dibenzo[a,d][7]annulen-5-amine hydrochloride], the inhibition at 3 µM was 91.77 ± 0.71% against hGluN1/hGluN2B [2] and 93.2 ± 1.11% against hGluN1/hGluN2A [3]. Moreover, the 50% inhibitory concentration (IC50) at hGluN1/hGluN2A [4] was 0.36 ± 0.06 µM; in test [5], greater than 100 µM; against hGluN1/hGluN2B [6] it was 0.16 ± 0.01 µM; in test [7] it was greater than 100 µM.

What is called IC50 is the concentration needed to halve the response being measured. A word on the inhibition: it is how much of the control response was suppressed. Higher therefore signals a response far below the control.
